Test results published in patent publication US12595253B2, “Benzamides of pyrazolylamino-pyrimidinyl derivatives, and compositions and methods thereof” (LYNK PHARMACEUTICALS CO. LTD., priority 2019, dated 2026).

Columns and labels:
Format in all cases: biochemical
JAK1 = biological target: T1, JAK1 (Homo sapiens, UniProt P23458); experiment: JAK1 microfluidic kinase assay (Caliper EZ Reader II, FAM labeled peptide substrate)
T1 construct: purchased Carna Biosciences
Outline: (§1)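 Compounds, serially diluted 3-fold from 5 μM, were preincubated 10 min with enzyme at ambient temperature before reaction in HEPES/Brij35/MgCl2/DTT buffer (1% DMSO final), tuned to 10% peptide conversion. After EDTA stop, FAM-peptide phosphorylation was measured by Caliper EZ Reader II; IC50 fitted from percent-inhibition curves.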

JAK2 = biological target: T2, JAK2 (Homo sapiens, UniProt O60674); experiment: JAK2 microfluidic kinase assay (Caliper EZ Reader II, FAM labeled peptide substrate)
T2 construct: purchased Carna Biosciences
Outline: as §1

TYK2 = biological target: T3, TYK2 (Homo sapiens, UniProt P29597); experiment: TYK2 microfluidic kinase assay (Caliper EZ Reader II, FAM labeled peptide substrate)
T3 construct: purchased Carna Biosciences
Method: Compounds were tested against JAK1, JAK2, JAK2V617F and TYK2. Assay Formats: JAK activity was determined in the reaction buffer 50 mM HEPES, 0.01% Brij35, 10 mM MgCl2, 2 mM DTT by a microfluidic assay. The phosphorylation of a FAM labeled peptide substrate was monitored in the Caliper EZ Reader II (Perkin Elmer). The assay condition for each batch of enzyme (Carna Biosciences) was optimized to obtain 10% conversion rate of peptide substrate. The test compounds were dissolved in DMSO to a stock concentration of 10 mM. 3-fold serially diluted compounds with top concentration of 5 μM were pre-incubated with JAK1, JAK2, JAK2V617F or TYK2 at indicated concentrations for 10 min at ambient temperature. The final DMSO concentration of assay mixture was 1%. […] The reaction was stopped by adding 50 mM EDTA. The reaction time for JAK1, JAK2, JAK2V617F and TYK2 was 120 min, 20 min, 30 min and 10 min, respectively. […] And the well without compound but with equivalent DMSO was defined as no inhibition. The percent inhibition was calculated by the following formula. % Inhibition=(Conversionmax−Conversionsample)/(Conversionmax−Conversionmin)*100 • Conversionmax means the conversion rate in the positive well without addition of compound • Conversionmin means the conversion rate in the well without addition of enzyme • Conversionsample means the conversion rate of test compounds The dose-response (percent inhibition) curve was plotted and IC50 values were determined by GraphPad software.

JAK2V617F = biological target: T4, JAK2V617F (Homo sapiens, UniProt O60674, V617F); experiment: JAK2V617F microfluidic kinase assay (Caliper EZ Reader II, FAM labeled peptide substrate); conditions: JAK2V617F 2.5 nM, 1 mM ATP
T4 construct: purchased Carna Biosciences
Method: Compounds were tested against JAK1, JAK2, JAK2V617F and TYK2. Assay Formats: JAK activity was determined in the reaction buffer 50 mM HEPES, 0.01% Brij35, 10 mM MgCl2, 2 mM DTT by a microfluidic assay. The phosphorylation of a FAM labeled peptide substrate was monitored in the Caliper EZ Reader II (Perkin Elmer). The assay condition for each batch of enzyme (Carna Biosciences) was optimized to obtain 10% conversion rate of peptide substrate. The test compounds were dissolved in DMSO to a stock concentration of 10 mM. 3-fold serially diluted compounds with top concentration of 5 μM were pre-incubated with JAK1, JAK2, JAK2V617F or TYK2 at indicated concentrations for 10 min at ambient temperature. The final DMSO concentration of assay mixture was 1%. […] The reaction was stopped by adding 50 mM EDTA. […] The percent inhibition was calculated by the following formula. % Inhibition=(Conversionmax−Conversionsample)/(Conversionmax−Conversionmin)*100 • Conversionmax means the conversion rate in the positive well without addition of compound • Conversionmin means the conversion rate in the well without addition of enzyme • Conversionsample means the conversion rate of test compounds The dose-response (percent inhibition) curve was plotted and IC50 values were determined by GraphPad software.

[1] = IC50 JAK1 (5 nM) (1 m MATP), JAK1 5 nM, 1 mM ATP
[2] = IC50 JAK2 ([…]) (1 mM ATP), 1 mM ATP
[3] = IC50 TYK2 ([…]) (1 mM ATP), TYK2 […], 1 mM ATP
[4] = IC50 JAK2 ([…]) (Km ATP), Km ATP

T3 sequence (P29597 whole entry): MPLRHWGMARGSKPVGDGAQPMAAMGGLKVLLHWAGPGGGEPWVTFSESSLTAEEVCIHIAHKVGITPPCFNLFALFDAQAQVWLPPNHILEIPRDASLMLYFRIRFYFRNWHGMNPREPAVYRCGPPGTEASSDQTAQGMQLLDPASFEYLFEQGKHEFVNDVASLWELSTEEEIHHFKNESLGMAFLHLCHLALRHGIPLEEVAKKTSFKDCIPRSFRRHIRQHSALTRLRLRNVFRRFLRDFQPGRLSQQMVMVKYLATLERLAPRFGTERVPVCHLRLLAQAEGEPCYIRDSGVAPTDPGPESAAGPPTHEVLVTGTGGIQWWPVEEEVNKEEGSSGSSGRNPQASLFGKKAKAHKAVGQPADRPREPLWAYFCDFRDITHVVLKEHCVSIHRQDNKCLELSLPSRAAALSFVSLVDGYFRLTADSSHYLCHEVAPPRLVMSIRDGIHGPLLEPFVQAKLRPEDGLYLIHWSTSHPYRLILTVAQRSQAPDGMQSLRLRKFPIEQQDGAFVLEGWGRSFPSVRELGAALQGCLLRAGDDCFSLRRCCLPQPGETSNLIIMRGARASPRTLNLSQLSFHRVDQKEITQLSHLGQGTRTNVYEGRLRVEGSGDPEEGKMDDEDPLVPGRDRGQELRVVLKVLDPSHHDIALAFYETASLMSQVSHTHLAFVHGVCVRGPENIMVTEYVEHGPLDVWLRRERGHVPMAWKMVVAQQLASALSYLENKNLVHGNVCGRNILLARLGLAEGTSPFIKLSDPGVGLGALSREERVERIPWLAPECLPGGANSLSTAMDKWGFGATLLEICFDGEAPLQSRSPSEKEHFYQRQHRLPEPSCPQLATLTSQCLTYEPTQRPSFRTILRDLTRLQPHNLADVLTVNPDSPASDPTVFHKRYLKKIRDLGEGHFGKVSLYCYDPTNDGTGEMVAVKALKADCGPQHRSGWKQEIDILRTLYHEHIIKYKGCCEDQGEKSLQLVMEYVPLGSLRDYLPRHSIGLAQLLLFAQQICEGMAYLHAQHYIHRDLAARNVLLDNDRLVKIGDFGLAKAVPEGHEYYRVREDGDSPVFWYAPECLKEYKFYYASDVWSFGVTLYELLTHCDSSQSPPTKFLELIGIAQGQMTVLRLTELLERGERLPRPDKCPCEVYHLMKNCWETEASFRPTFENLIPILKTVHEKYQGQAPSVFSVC
T4 sequence (O60674 whole entry V617F): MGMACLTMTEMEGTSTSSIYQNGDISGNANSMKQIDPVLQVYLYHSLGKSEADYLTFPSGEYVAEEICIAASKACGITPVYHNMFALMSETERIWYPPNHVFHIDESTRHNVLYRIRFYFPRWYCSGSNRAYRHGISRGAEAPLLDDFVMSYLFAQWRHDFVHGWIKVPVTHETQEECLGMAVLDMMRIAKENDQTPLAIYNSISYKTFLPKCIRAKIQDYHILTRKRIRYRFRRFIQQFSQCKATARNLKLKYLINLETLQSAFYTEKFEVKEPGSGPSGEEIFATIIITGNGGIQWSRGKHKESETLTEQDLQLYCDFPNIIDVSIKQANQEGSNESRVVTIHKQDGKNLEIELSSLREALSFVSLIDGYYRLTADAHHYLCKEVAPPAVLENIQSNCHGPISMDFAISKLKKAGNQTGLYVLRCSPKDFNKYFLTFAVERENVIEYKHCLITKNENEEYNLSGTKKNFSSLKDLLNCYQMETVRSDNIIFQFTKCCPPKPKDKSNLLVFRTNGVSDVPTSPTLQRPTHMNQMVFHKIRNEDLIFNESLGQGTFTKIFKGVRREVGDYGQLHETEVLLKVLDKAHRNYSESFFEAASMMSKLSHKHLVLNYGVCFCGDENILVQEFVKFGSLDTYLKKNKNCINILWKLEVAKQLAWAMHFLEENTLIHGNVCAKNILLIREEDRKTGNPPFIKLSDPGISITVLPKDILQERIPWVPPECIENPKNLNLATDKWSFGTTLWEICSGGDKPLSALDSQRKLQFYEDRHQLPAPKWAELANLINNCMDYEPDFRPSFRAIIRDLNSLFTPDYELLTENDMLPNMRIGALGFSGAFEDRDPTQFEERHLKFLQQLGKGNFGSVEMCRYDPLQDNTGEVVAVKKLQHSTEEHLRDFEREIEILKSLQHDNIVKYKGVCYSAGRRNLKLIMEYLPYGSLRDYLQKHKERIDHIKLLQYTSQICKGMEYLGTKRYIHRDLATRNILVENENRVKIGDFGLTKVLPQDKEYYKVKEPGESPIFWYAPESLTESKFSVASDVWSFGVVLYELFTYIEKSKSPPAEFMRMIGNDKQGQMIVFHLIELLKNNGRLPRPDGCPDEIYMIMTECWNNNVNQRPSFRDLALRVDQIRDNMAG
T1 sequence (P23458 whole entry): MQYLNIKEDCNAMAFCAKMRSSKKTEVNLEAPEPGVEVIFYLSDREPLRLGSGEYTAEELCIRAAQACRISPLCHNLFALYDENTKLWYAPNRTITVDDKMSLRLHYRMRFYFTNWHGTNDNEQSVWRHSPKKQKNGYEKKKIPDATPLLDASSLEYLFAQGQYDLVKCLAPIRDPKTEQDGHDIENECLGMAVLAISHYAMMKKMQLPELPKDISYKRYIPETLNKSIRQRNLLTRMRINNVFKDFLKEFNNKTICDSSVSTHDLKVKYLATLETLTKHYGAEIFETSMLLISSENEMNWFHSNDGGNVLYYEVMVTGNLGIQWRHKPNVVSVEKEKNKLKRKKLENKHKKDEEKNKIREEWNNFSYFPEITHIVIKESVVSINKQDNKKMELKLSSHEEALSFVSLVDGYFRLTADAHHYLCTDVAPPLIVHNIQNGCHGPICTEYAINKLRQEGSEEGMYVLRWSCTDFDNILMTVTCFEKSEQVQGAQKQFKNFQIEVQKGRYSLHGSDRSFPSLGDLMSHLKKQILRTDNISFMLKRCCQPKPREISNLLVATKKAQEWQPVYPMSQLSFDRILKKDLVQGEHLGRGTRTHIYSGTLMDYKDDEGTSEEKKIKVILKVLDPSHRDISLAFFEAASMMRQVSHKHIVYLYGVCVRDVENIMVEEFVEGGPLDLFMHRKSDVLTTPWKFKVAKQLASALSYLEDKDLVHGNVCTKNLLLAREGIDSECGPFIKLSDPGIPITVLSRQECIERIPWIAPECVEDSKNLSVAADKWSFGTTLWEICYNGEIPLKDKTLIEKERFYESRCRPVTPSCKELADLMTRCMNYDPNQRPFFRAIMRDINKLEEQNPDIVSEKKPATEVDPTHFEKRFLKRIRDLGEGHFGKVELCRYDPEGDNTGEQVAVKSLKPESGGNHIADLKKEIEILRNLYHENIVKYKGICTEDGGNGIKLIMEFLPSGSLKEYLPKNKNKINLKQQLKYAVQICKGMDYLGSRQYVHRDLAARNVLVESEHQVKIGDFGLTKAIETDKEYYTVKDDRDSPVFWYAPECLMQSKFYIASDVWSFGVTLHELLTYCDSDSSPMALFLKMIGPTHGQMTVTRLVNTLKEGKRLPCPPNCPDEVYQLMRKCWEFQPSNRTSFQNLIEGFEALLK
T2 sequence (O60674 whole entry): as the sequence (O60674 whole entry V617F) above, with F617V counted along it

Row | IC50 (JAK1; [1]) [µM] | IC50 (JAK2; [2]) [µM] | IC50 (TYK2; [3]) [µM] | IC50 (JAK2; [4]) [µM] | IC50 (JAK2V617F) [µM] | IC50 (TYK2; IC50 TYK2 (10 nM) (Km ATP), TYK2 10 nM, Km ATP) [µM] | IC50 (JAK1; IC50 JAK1 (10 nM) (Km ATP), JAK1 10 nM, Km ATP) [µM] | SMILES
1 | 0.013 | < 0.00025 | 0.058 |  |  |  |  | N#CCNC(=O)c1ccc(-c2nc(Nc3cnn(C4CCN(C(=O)CO)CC4)c3)ncc2Cl)cc1 [Example 218, 4-(5-Chloro-2-((1-(1-(2-hydroxyacetyl)piperidin-4-yl)-1H-pyrazol-4-yl)amino)pyrimidin-4-yl)-N-(cyanomethyl)benzamide]
2 | 0.00163 | 0.0413 | 0.0539 |  |  |  |  | Cc1cnc(Nc2cnn(CCO)c2)nc1-c1ccc(C(=O)N[C@H](C#N)C(C)C)cc1 [Example 191, (S)—N-(1-cyano-2-methylpropyl)-4-(2-((1-(2-hydroxyethyl)-1H-pyrazol-4-yl)amino)-5-methylpyrimidin-4-yl)benzamide]
3 | 0.0201 | 0.0443 |  | 0.00139 | 0.102 |  |  | Cc1cnc(Nc2cnn(C3CC3)c2)nc1-c1ccc(C(=O)NCC2(C#N)CC2)cc1 [Example 93, N-((1-cyanocyclopropyl)methyl)-4-(2-((1-cyclopropyl-1H-pyrazol-4-yl)amino)-5-methylpyrimidin-4-yl)benzamide]
4 | 0.00589 | 0.00039 |  |  | 0.022 |  |  | CC(C)n1cc(Nc2ncc(Cl)c(-c3ccc(C(=O)N[C@@H](C)C#N)cc3)n2)cn1 [Example 228, (S)-4-(5-Chloro-2-((1-isopropyl-1H-pyrazol-4-yl)amino)pyrimidin-4-yl)-N-(1-cyanoethyl)benzamide]
5 | 0.0348 | 0.0413 |  |  | 0.0716 |  |  | C[C@H](C#N)NC(=O)c1ccc(-c2nc(Nc3cnn(C4CC4)c3)ncc2Cl)cc1 [Example 196, (R)-4-(5-chloro-2-((1-cyclopropyl-1H-pyrazol-4-yl)amino)pyrimidin-4-yl)-N-(1-cyanoethyl)benzamide]
6 |  |  |  |  |  | 1.77 |  | N#CC1CN(C(=O)c2ccc(-c3nc(Nc4cnn(C5CC5)c4)ncc3C(F)F)cc2F)C1 [Example 126, 1-(4-(2-((1-Cyclopropyl-1H-pyrazol-4-yl)amino)-5-(difluoromethyl)pyrimidin-4-yl)-2-fluorobenzoyl)azetidine-3-carbonitrile]
7 | 0.0131 | 0.00047 |  |  | 0.0343 |  |  | CO[C@H]1CC[C@@H](n2cc(Nc3ncc(C)c(-c4ccc(C(=O)N[C@@H](C)C#N)cc4)n3)cn2)CC1 [Example 90, N—((S)-1-cyanoethyl)-4-(2-((1-(cis-4-methoxycyclohexyl)-1H-pyrazol-4-yl)amino)-5-methylpyrimidin-4-yl)benzamide]
8 | 0.0143 | 0.00121 |  |  | 0.00491 |  |  | Cc1cnc(Nc2cnn([C@H]3CC[C@@H](C#N)CC3)c2)nc1-c1ccc(C(=O)NCC(F)(F)F)cc1 [Example 86, 4-(2-((1-(Cis-4-cyanocyclohexyl)-1H-pyrazol-4-yl)amino)-5-methylpyrimidin-4-yl)-N-(2,2,2-trifluoroethyl)benzamide]
9 | 0.0191 | 0.015 |  |  | 0.0923 |  |  | Cc1cnc(Nc2cnn(CC#N)c2)nc1-c1ccc(C(=O)N[C@@H](C)C#N)cc1 [Example 40, (S)—N-(1-cyanoethyl)-4-(2-((1-(cyanomethyl)-1H-pyrazol-4-yl)amino)-5-methylpyrimidin-4-yl)benzamide]
10 | 0.0208 | < 0.00025 |  | < 0.00025 | 0.00206 |  |  | Cc1cnc(Nc2cnn(C3CCN(C(=O)C4(C(F)(F)F)CC4)CC3)c2)nc1-c1ccc(C(=O)NCC#N)cc1 [Example 115, N-(Cyanomethyl)-4-(5-methyl-2-((1-(1-(1-(trifluoromethyl)cyclopropanecarbonyl)piperidin-4-yl)-1H-pyrazol-4-yl)amino)pyrimidin-4-yl)benzamide]
11 | 0.124 |  |  | 0.0136 | 0.796 |  |  | Cc1cnc(Nc2cnn(C)c2)nc1-c1ccc(C(=O)N[C@H]2C[C@@H](C#N)C2)cc1 [Example 16, N-((cis)-3-Cyanocyclobutyl)-4-(5-methyl-2-((1-methyl-1H-pyrazol-4-yl)amino)pyrimidin-4-yl)benzamide]
12 | 0.009 | < 0.00025 |  |  | 0.00065 |  |  | Cc1cnc(Nc2cnn([C@H]3CC[C@H](C#N)CC3)c2)nc1-c1ccc(C(=O)NCC(F)(F)F)cc1 [Example 87, 4-(2-((1-(Trans-4-cyanocyclohexyl)-1H-pyrazol-4-yl)amino)-5-methylpyrimidin4-yl)-N-(2,2,2-trifluoroethyl)benzamide]
13 |  | 0.00159 |  | 0.00043 | 0.0461 |  | 0.00237 | Cc1cnc(Nc2cnn(C3CCN(CC(F)(F)F)CC3)c2)nc1-c1ccc(C(=O)NCC#N)cc1 [Example 22, N-(Cyanomethyl)-4-(5-methyl-2-((1-(1-(2,2,2-trifluoroethyl)piperidin-4-yl)-1H-pyrazol-4-yl)amino)pyrimidin-4-yl)benzamide]
14 | 0.0366 | 0.0893 |  |  | 0.142 |  |  | Cc1cnc(Nc2cnn(C3CC3)c2)nc1-c1ccc(C(=O)N[C@@H](C)C#N)nc1 [Example 164, (S)—N-(1-cyanoethyl)-5-(2-((1-cyclopropyl-1H-pyrazol-4-yl)amino)-5-methylpyrimidin-4-yl)picolinamide]
15 | 0.037 | 0.0464 |  | 0.0021 | 0.0923 |  |  | C[C@@H](C#N)NC(=O)c1ccc(-c2nc(Nc3cnn(C4CC4)c3)ncc2Cl)cc1F [Example 137, (S)-4-(5-Chloro-2-((1-cyclopropyl-1H-pyrazol-4-yl)amino)pyrimidin-4-yl)-N-(1-cyanoethyl)-2-fluorobenzamide]
16 | 0.0399 | 0.049 |  | 0.0016 | 0.118 |  |  | Cc1cnc(Nc2cnn(C3CC3)c2)nc1-c1ccc(C(=O)N[C@@H](C)C#N)c(F)c1 [Example 129, (S)—N-(1-Cyanoethyl)-4-(2-((1-cyclopropyl-1H-pyrazol-4-yl)amino)-5-methylpyrimidin-4-yl)-2-fluorobenzamide]
17 | 0.00408 | 0.00314 |  |  | 0.0176 |  |  | CCCn1cc(Nc2ncc(Cl)c(-c3ccc(C(=O)N[C@@H](C)C#N)cc3)n2)cn1 [Example 227, (S)-4-(5-Chloro-2-((1-propyl-1H-pyrazol-4-yl)amino)pyrimidin-4-yl)-N-(1-cyanoethyl)benzamide]
18 | 0.0171 | < 0.00025 |  | < 0.00025 | 0.00526 |  |  | Cc1cnc(Nc2cnn(C3CCN(C(=O)NC(C)(C)C)CC3)c2)nc1-c1ccc(C(=O)NCC#N)cc1 [Example 3, N-(tert-Butyl)-4-(4-((4-(4-((cyanomethyl)carbamoyl)phenyl)-5-methylpyrimidin-2-yl)amino)-1H-pyrazol-1-yl)piperidine-1-carboxamide]
19 |  | 0.0308 | 0.0302 |  |  |  |  | Cc1cnc(Nc2cn[nH]c2)nc1-c1ccc(C(=O)N[C@@H](C)C#N)cc1 [Example 199, (S)-4-(2-((1H-Pyrazol-4-yl)amino)-5-methylpyrimidin-4-yl)-N-(1-cyanoethyl)benzamide]
20 | 0.0193 |  |  | 0.0011 | 0.0739 |  |  | Cn1cc(Nc2ncc(Cl)c(-c3ccc(C(=O)NCC(C)(C)C#N)cc3)n2)cn1 [Example 122, 4-(5-Chloro-2-((1-methyl-1H-pyrazol-4-yl)amino)pyrimidin-4-yl)-N-(2-cyano-2-methylpropyl)benzamide]
21 | 0.00478 | < 0.00025 |  |  | 0.0101 |  |  | Cc1cnc(Nc2cnn(C3CCCCC3)c2)nc1-c1ccc(C(=O)N[C@@H](C)C#N)cc1 [Example 89, (S)—N-(1-cyanoethyl)-4-(2-((1-cyclohexyl-1H-pyrazol-4-yl)amino)-5-methylpyrimidin-4-yl)benzamide]
